This is an account of results in PubChem BioAssay AID720513 (Broad Institute, 2013).

Results filed as inconclusive are left out. Some results are limits rather than exact numbers.

This assay has as its system U2OS PGC1a acetylation AlphaLISA, overnight. As to the kind of experiment: PGC1a acetylation increase, cellular AlphaLISA – cell-based, cherry-picked samples, set 6, dose response (AID 720513).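 Also: cells made to overexpress flag tagged PGC1a plus GCN5 acetyltransferase by viral infection.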
As to `COc1ccc(NC(=O)N(C)C[C@H]2OCc3ccccc3-c3c(n(C)c4ccccc34)C(=O)N([C@@H](C)CO)C[C@H]2C)c(OC)c1`, the AC40 was 3.5 µM.
The same measure for `COc1ccc(NC(=O)c2sccc2SCc2cccc(C(F)(F)F)c2)cc1`: 4.18 µM.
The same measure for `Cc1cc(Cn2nc(C(=O)NCc3cccc(C(F)(F)F)c3)cc2-c2ccccc2)on1`: 5.81 µM; for `Cc1nnc(NCc2ccccc2)c2ccccc12`: 3.04 µM; for `COc1ccc(-c2nc3c(C)cc(Br)cn3c2Cc2ccc(C)cc2)cc1OC`: 8.31 µM.
Turning to `OC1CCCC1NCc1ccnc2cc(Cl)ccc12` (stereo not given), the AC40 is 10.6 µM.
Regarding `C=C/C=C/[C@@H]1C(=C)CN2[C@H]1[C@H](Cc1ccccc1)OC(=O)[C@@H]2Cc1ccccc1`, the AC40 is 11.6 µM.
The same measure for `O=C(Nc1ccccc1)C1=C[C@@H](c2ccc(C(F)(F)F)cc2)C[C@@H](OCc2ccc(CO)cc2)O1`: below 2.6 µM; for `CC(=O)c1cc(-c2ccccc2)n(CCC(=O)NC2CCCCC2)c1C`: 7.4 µM; for `CC(=O)c1cccc(N(C(=O)c2cnccn2)C(C(=O)NCc2ccccc2)c2ccco2)c1` (stereo not given): 1.39 µM.
The same measure for `CN(C(=O)C1CC1)C1CCS(=O)(=O)C1` (stereo not given): 15.2 µM; for `C[C@@H]1CN([C@H](C)CO)C(=O)c2c(c3ccccc3n2C)-c2ccccc2CO[C@@H]1CN(C)C(=O)c1ccccc1`: 5.94 µM.
The same measure for `CCOC(=O)C(NC(=O)c1ccccc1OCC)(Nc1ncccn1)C(F)(F)F` (stereo not given): 1.32 µM.
As to `Cc1cccc(C(=O)Nc2ccc(C(=O)/C=C/c3cccnc3)cc2)c1`, the AC40 is 2.34 µM.
The same measure for `C=CCn1c(=NC(=O)c2ccc(S(=O)(=O)N3CCCC3)cc2)sc2cc(NC(C)=O)ccc21`: 12.3 µM; for `CC1CCCN(Cc2c(O)ccc3c(=O)c(-c4nc5ccccc5s4)c(N)oc23)C1` (stereo not given): 5.03 µM; for `O=C1CC(Sc2nnc(-c3ccccc3O)o2)C(=O)N1c1ccccc1` (stereo not given): 7.23 µM.
The same measure for `CCN1CCN(c2cc(C)c3cc(NC(=O)c4ccc(Br)o4)ccc3n2)CC1`: 8.23 µM.
The same measure for `COc1ccc(C(CNC(=O)c2cccc(N(C)C)c2)N2CCCC2)cc1` (stereo not given): 5.4 µM; for `C[C@H]1CN([C@@H](C)CO)S(=O)(=O)c2ccc(C#CCN(C)C)cc2O[C@@H]1CN(C)Cc1ccc2c(c1)OCO2`: 4.76 µM.
For the compound `COc1ccc(CCn2c(-c3ccc(OC)cc3)nc3c(c(=O)c4ccccc4n3C)c2=O)cc1`, the AC40 is 7.43 µM.
The same measure for `COC(=O)c1cc2ccsc2n1CC(=O)Nc1cc(Cl)ccc1OC`: 7.88 µM; for `CCO[C@H]1OC(C(=O)N2CCCCCCC2)=C[C@@H](C2CCCCC2)[C@@H]1CCCO`: 1.96 µM; for `COC(=O)C[C@H]1c2cc(C(F)(F)F)ccc2S(=O)(=O)N1Cc1ccc(OC)cc1`: 5.25 µM.
Consider `O=C(NCc1ccccc1)C(c1ccccc1)N(C(=O)c1csnn1)c1ccc(F)cc1` (stereo not given), for which the AC40 is 4.34 µM.
The same measure for `O=C(Cc1ccccc1)Nc1ccc(NC(=O)c2cccs2)cc1`: 1.23 µM.
`CC(=O)c1ccc(NC(=O)N2CCc3ccccc3C2)cc1`: the AC40 is 0.412 µM.
With `CCOc1ccc(N(C)S(=O)(=O)c2cc(-c3cc(C)no3)ccc2C(C)C)cc1`, the AC40 is 2.97 µM.
The same measure for `CC(=O)Nc1ccc(Nc2ncnc3c2cnn3-c2ccc(C)cc2C)cc1`: 2.53 µM.
The same measure for `C[C@@H]1CN([C@@H](C)CO)C(=O)c2c(c3ccccc3n2C)-c2ccccc2CO[C@@H]1CN(C)C(=O)c1cc(Cl)cc(Cl)c1`: 12.7 µM.
The same measure for `N#C/C(=C(/O)c1ccco1)c1nc2ccccc2[nH]1`: 0.841 µM.
Take `CCOC(=O)C1(N(CC)CC)Sc2cc(C)ccc2NC1=O` (stereo not given): the AC40 was 3.28 µM.
The same measure for `C[C@@H]1CN([C@@H](C)CO)C(=O)c2c(c3ccccc3n2C)-c2ccccc2CO[C@@H]1CN(C)C(=O)Nc1ccc(F)cc1`: 7.76 µM.
The same measure for `CCOc1ccc(-c2nnn(CC#N)n2)cc1OC`: 1.96 µM; for `COc1ccc(NC(=O)Cn2ncc(Cl)c(Cl)c2=O)cc1S(=O)(=O)N1CCOCC1`: 1.6 µM.
The same measure for `CSCCC(c1nnnn1-c1c(C)cccc1C)N1CCC2(CC1)C(=O)NCN2c1ccccc1` (stereo not given): 4.64 µM.
In the case of `C/C=C(/C)C(=O)O[C@@H]1c2cc(OC)c(OC)c(OC)c2-c2c(cc3c(c2OC)OCO3)C[C@H](C)[C@]1(C)O`, the AC40 was 1.48 µM.
The same measure for `Cc1cccc2sc(N3CCN(C(=O)c4cccs4)CC3)nc12`: 16.7 µM; for `CN1CCN(C(=O)CSc2nc(-c3cccs3)cc(-c3cccs3)c2C#N)CC1`: 2.77 µM; for `CC(C)C(OC(=O)c1cccs1)C(=O)NC1CCCCC1` (stereo not given): 2.58 µM.
The same measure for `CC1(C)CC(=O)C2=C(C1)Nc1ccccc1N1C(=O)c3ccccc3C21` (stereo not given): 2.15 µM.
The same measure for `COc1ccc(OC)c(C(=O)/C=C/c2ccccc2C(F)(F)F)c1`: 8.62 µM; for `CCCCCOC(=O)Cc1c(O)c2ccccc2n(C)c1=O`: 9.64 µM.
Turning to `Cc1cc(C)c(S(=O)(=O)Nc2ccccc2-c2ccccc2)c(C)c1`, the AC40 is 3.95 µM.
The same measure for `Cc1ccc(CC(=O)N2CCN(c3ccc([N+](=O)[O-])cc3)CC2)cc1`: 0.312 µM.
`CCN(CC)CCNC(=O)c1ccc2c(c1NCCO)C(=O)c1ccccc1C2=O`: the AC40 is 14.6 µM.
As for `CC1(Cc2ccc(Cl)s2)C(=O)Nc2c(Cl)ccc(Cl)c21` (stereo not given), the AC40 is 11.3 µM.
Regarding `CC(C)(C)C(=O)Nc1sc2c(c1-c1nc3ccccc3[nH]1)CCCC2`, the AC40 was 18.4 µM.
The same measure for `C=C[C@H]1C(C(=O)OCC)=CC[C@@H](c2ccccc2)N1S(=O)(=O)c1ccc(C)cc1`: 0.249 µM; for `COc1ccc(Nc2nnc(-c3ccc(C(=O)NCCO)cc3)c3ccccc23)cc1`: 3.07 µM.
In the case of `C[C@H]1CN([C@@H](C)CO)C(=O)c2cccc(NC(=O)Nc3cccc4ccccc34)c2O[C@H]1CN(C)Cc1ccc(C(=O)Nc2ccccc2N)cc1`, the AC40 is 7.53 µM.
The same measure for `CSc1nc(NCc2ccco2)c2ccccc2n1`: 13.6 µM; for `CC(=O)c1cccc(N(C(=O)Cn2nnc3ccccc32)C(C(=O)NCc2ccccc2)c2ccccn2)c1` (stereo not given): 10.5 µM.
The same measure for `COc1ccccc1CN1C[C@@H]2N[C@H](C1)C2c1ccc(-c2ccccc2OC)cc1` (stereo not given in full): 20.8 µM.
Consider `CC(OC(=O)C1CCCC1)C(=O)Nc1ccc(C(N)=O)cc1` (stereo not given), for which the AC40 was 15.8 µM.
On to `COc1cc(OC)c2c(-c3cccc(-c4cccc(C)c4)c3)cc(=O)oc2c1`, for which the AC40 is 1.56 µM.
The same measure for `COC(=O)C[C@@H]1C[C@H]2c3cc(NC(=O)Nc4ccc(C(F)(F)F)cc4)ccc3O[C@H]2[C@H](CO)O1`: 8.45 µM.
The same measure for `Oc1ccc(C[C@@H]2CNCCN2CCC23CC4CC(CC(C4)C2)C3)cc1`: 6.79 µM; for `COC(=O)c1cc(S(=O)(=O)N2CCN(c3ccc(C(C)=O)cc3)CC2)c[nH]1`: 4.17 µM.
The same measure for `O=S(=O)(NC12CC3CC(CC(C3)C1)C2)c1ccc(F)cc1`: 4.02 µM.
For the compound `O=C(CN1CCC(n2nnc3cc(F)ccc32)CC1)NCc1ccco1`, the AC40 is 1.69 µM.
The same measure for `O=C(Nc1cccnc1)c1ccc(Br)s1`: 0.601 µM; for `O=C(NCc1cccnc1)c1ccc(NC(=O)c2ccc(Br)cc2)cc1`: below 0.16 µM; for `CCOC(=O)c1nc(S(C)(=O)=O)ncc1Cl`: 1.65 µM.
The same measure for `Cc1coc2cc3oc(=O)c(CCC(=O)NC4CC4)c(C)c3cc12`: 1.6 µM.
